Patent US20060074243A1, “Hydroxamic acid and amide compounds and their use as protease inhibitors” (Pharmacia Corporation, priority 2002, published 2006)

Tests used:
Human recombinant MMP-1 = target: T1, Human recombinant MMP-1 (Homo sapiens, UniProt P03956); assay: In vitro MMP inhibition analysis (fluorogenic peptide substrate cleavage), Ki; type: biochemical; details: Table 2
T1 construct: made in house; host or cells: MMP-1-transfected HT-1080 cells (spent media)
T1 sequence (P03956 100-469): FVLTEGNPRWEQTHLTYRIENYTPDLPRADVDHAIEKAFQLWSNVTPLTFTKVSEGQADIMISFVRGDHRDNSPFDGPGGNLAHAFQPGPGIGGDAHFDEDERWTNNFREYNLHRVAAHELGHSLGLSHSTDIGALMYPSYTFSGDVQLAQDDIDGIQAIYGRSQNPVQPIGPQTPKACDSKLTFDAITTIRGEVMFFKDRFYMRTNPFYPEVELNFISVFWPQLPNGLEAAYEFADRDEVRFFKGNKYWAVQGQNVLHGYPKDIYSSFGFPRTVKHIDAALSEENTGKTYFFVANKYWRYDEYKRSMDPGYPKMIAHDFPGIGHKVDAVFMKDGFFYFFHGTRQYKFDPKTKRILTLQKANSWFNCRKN
How it was run: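 APMA- or trypsin-activated recombinant human MMP-1 (purified from transfected HT-1080 medium) with 4 μM MCA/Dpa quenched fluorogenic peptide, 1 h at room temperature in Tris/NaCl/CaCl2 buffer pH 7.5; fluorescence ex 330/em 420 nm. Ki from Morrison-equation fit of rates, substrate at or below Km, uncorrected.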

Human recombinant MMP-13 = target: T2, Human recombinant MMP-13 (Homo sapiens, UniProt P45452); assay: as above; type: biochemical; details: Table 2
T2 construct: made in house; host or cells: baculovirus / insect cells
How it was run: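 Baculovirus-expressed full-length MMP-13 proenzyme was purified on heparin-agarose and zinc-chelate columns, then APMA-activated. It cleaved 4 μM MCA/Dpa fluorogenic peptide in 100 mM Tris-HCl, 100 mM NaCl, 10 mM CaCl2, 0.05% Brij-23, pH 7.5, for 1 h at room temperature (ex 330/em 420 nm). Ki came from Morrison-equation fits with substrate ≤Km, uncorrected.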

Ki (Human recombinant MMP-1) [nM]	Ki (Human recombinant MMP-13) [nM]	Structure (SMILES)
501	0.19	CC(C)CCNC(=O)c1cnc(-c2ccc(S(=O)(=O)C3(C(=O)NO)CCOCC3)cc2)cn1 [Example 185]
1100	0.55	CC(C)CNC(=O)c1cnc(-c2ccc(S(=O)(=O)C3(C(=O)NO)CCOCC3)cc2)cn1 [Example 186]
7020	0.1	COCCO[C@H]1CC[C@](C(=O)NO)(S(=O)(=O)c2ccc(-c3cnc(CCC(F)(F)C(F)(F)F)cn3)cc2)CC1 [Example 187]
81.2	0.08	O=C(NO)C1(S(=O)(=O)c2ccc(-c3ccc4c(c3)OCO4)cc2)CCOCC1 [Example 188]
1310	0.28	O=C(NCC1CCCCC1)c1cnc(-c2ccc(S(=O)(=O)C3(C(=O)NO)CCOCC3)cc2)cn1 [Example 190]
200	0.24	O=C(NCC1CC1)c1cnc(-c2ccc(S(=O)(=O)C3(C(=O)NO)CCOCC3)cc2)cn1 [Example 191]
1540	0.22	O=C(NCC(F)(F)C(F)(F)F)c1cnc(-c2ccc(S(=O)(=O)C3(C(=O)NO)CCOCC3)cc2)cn1 [Example 192]
1490	1.69	O=C(NO)C1(S(=O)(=O)c2ccc(-c3nc4ccccc4o3)cc2)CCOCC1 [Example 193]
> 10000	319	O=C(NO)C1(S(=O)(=O)c2ccc(-c3cnc4ccccc4n3)cc2)CCOCC1 [Example 194]
> 10000	7.2	O=C(NO)C1(S(=O)(=O)c2ccc(-c3nc4ccccc4s3)cc2)CCOCC1 [Example 195]
> 10000	13.5	O=C1c2ccccc2C(=O)N1CCCOc1cccc(-c2ccc(S(=O)(=O)C3(C(=O)NO)CCOCC3)cc2)c1 [Example 196]
> 10000	1080	O=C(NO)C1(S(=O)(=O)c2ccc(-c3ccccc3CO)cc2)CCOCC1 [Example 197]
552	0.323	O=C(NC1CCCC1)c1ccc(-c2ccc(S(=O)(=O)C3(C(=O)NO)CCOCC3)cc2)nc1 [Example 198]
4510	0.086	C#CCN1CCC(C(=O)NO)(S(=O)(=O)c2ccc(-c3ccc(CCC(F)(F)C(F)(F)F)cn3)cc2)CC1 [Example 199]
> 10000	0.144	COCCN1CCC(C(=O)NO)(S(=O)(=O)c2ccc(-c3cnc(OCCC4CCCC4)cn3)cc2)CC1 [Example 200]
980	0.02	O=C(NO)C1(S(=O)(=O)c2ccc(-c3ccc(CCC(F)(F)C(F)(F)F)cn3)cc2)CCOCC1 [Example 201]
4060	0.076	O=C(NO)C1(S(=O)(=O)c2ccc(-c3ccc(CCCC(F)(F)F)cn3)cc2)CC=CC1 [Example 202]
1140	0.375	CCCCNC(=O)c1ccc(-c2ccc(S(=O)(=O)C3(C(=O)NO)CCOCC3)cc2)nc1 [Example 203]
751	0.751	CC(C)NC(=O)c1ccc(-c2ccc(S(=O)(=O)C3(C(=O)NO)CCOCC3)cc2)nc1 [Example 204]

Ki (Human recombinant MMP-1) [nM]	Ki (Human recombinant MMP-13) [nM]	Structure (SMILES)
1070	1.19	CC(C)(C)NC(=O)c1ccc(-c2ccc(S(=O)(=O)C3(C(=O)NO)CCOCC3)cc2)nc1 [Example 205]
> 10000	0.41	CCCCc1cnc(-c2ccc(S(=O)(=O)C3(C(=O)NO)CCN(CCOC)CC3)cc2)cn1 [Example 206]
1380	0.729	CC[C@@H](C)NC(=O)c1ccc(-c2ccc(S(=O)(=O)C3(C(=O)NO)CCOCC3)cc2)nc1 [Example 207]
1260	0.715	CC[C@H](C)NC(=O)c1ccc(-c2ccc(S(=O)(=O)C3(C(=O)NO)CCOCC3)cc2)nc1 [Example 208]
1280	0.029	COCCOC1CCC(C(=O)NO)(S(=O)(=O)c2ccc(-c3ccc(CCCC(F)(F)F)cn3)cc2)CC1 (stereo not shown) [Example 209]
> 10000	0.151	COCCOC1CCC(C(=O)NO)(S(=O)(=O)c2ccc(-c3cnc(CCCC(F)(F)F)cn3)cc2)CC1 (stereo not shown) [Example 210]
975	0.056	O=C(CCc1nccs1)c1ccc(-c2ccc(S(=O)(=O)C3(C(=O)NO)CCOCC3)cc2)cc1 [Example 211]
> 10000	0.679	O=C(Cc1ccc(-c2ccc(S(=O)(=O)C3(C(=O)NO)CCOCC3)cc2)nc1)N1CCCCC1 [Example 212]
> 10000	1.41	CCN1CCC(C(=O)NO)(S(=O)(=O)c2ccc(-c3cnc(CCC(F)(F)F)cn3)cc2)CC1 [Example 213]
> 10000	0.661	COCCN1CCC(C(=O)NO)(S(=O)(=O)c2ccc(-c3cnc(CCC(F)(F)F)cn3)cc2)CC1 [Example 214]
> 10000	0.356	O=C(NO)C1(S(=O)(=O)c2ccc(-c3cnc(CCC(F)(F)F)cn3)cc2)CCN(C2CC2)CC1 [Example 215]
1860	0.572	C#CCN(C)C(=O)c1ccc2cc(-c3ccc(S(=O)(=O)C4(C(=O)NO)CCOCC4)cc3)ccc2c1 [Example 216]
> 10000	1.2	CCN1CCC(C(=O)NO)(S(=O)(=O)c2ccc(-c3cnc(CCCC(F)(F)F)cn3)cc2)CC1 [Example 217]
> 10000	0.267	O=C(NO)C1(S(=O)(=O)c2ccc(-c3cnc(CCCC(F)(F)F)cn3)cc2)CCN(C2CC2)CC1 [Example 218]
1700	0.111	Cc1nc(CCc2ccc(-c3ccc(S(=O)(=O)C4(C(=O)NO)CCOCC4)cc3)cc2)no1 [Example 219]
251	0.259	O=C(NCC1CC1)c1ccc2cc(-c3ccc(S(=O)(=O)C4(C(=O)NO)CCOCC4)cc3)ccc2c1 [Example 220]
1860	0.736	CN(C)C(=O)c1ccc2cc(-c3ccc(S(=O)(=O)C4(C(=O)NO)CCOCC4)cc3)ccc2c1 [Example 221]
1440	0.612	O=C(c1ccc2cc(-c3ccc(S(=O)(=O)C4(C(=O)NO)CCOCC4)cc3)ccc2c1)N1CCOCC1 [Example 222]
1500	0.97	O=C(c1ccc2cc(-c3ccc(S(=O)(=O)C4(C(=O)NO)CCOCC4)cc3)ccc2c1)N1CCCCC1 [Example 223]
